Measurements reported in ChEMBL document CHEMBL4373693, “Virtual Screening Approach and Investigation of Structure-Activity Relationships To Discover Novel Bacterial Topoisomerase Inhibitors Targeting Gram-Positive and Gram-Negative Pathogens” (J Med Chem, 2019).
≈ marks a conversion by molar mass, not a printed value. One block for each compound: values may come before it.

Columns and labels:
Staphylococcus aureus = assay: Antibacterial activity against Staphylococcus aureus; type: functional
Escherichia coli = assay: Antibacterial activity against Escherichia coli; type: functional
[1] = Inhibition of Escherichia coli DNA topoisomerase 4
DNA gyrase [2] = biological target: DNA gyrase (Escherichia coli, UniProt P0AES4+P0AES6); assay: Inhibition of Escherichia coli DNA gyrase; type: protein-complex assay
Enterococcus faecalis [3] = assay: Antibacterial activity against vancomycin and teicoplanin-resistant Enterococcus faecalis APV 00409 after 16 to 24 hrs by broth microdilution method; type: functional
Enterococcus faecalis [4] = assay: Antibacterial activity against Enterococcus faecalis ATCC 29212 after 16 to 24 hrs by broth microdilution method; type: functional
Enterococcus faecalis [5] = assay: Antibacterial activity against vancomycin-sensitive Enterococcus faecalis APV 00623 after 16 to 24 hrs by broth microdilution method; type: functional
Haemophilus influenzae [6] = assay: Antibacterial activity against quinolone-sensitive Haemophilus influenzae ATCC 49766 after 16 to 24 hrs by broth microdilution method; type: functional
Enterococcus faecalis [7] = assay: Antibacterial activity against vancomycin-sensitive Enterococcus faecalis APV 00406 after 16 to 24 hrs by broth microdilution method; type: functional
Enterococcus faecium [8] = assay: Antibacterial activity against vancomycin and teicoplanin-resistant Enterococcus faecium APV 00422 after 16 to 24 hrs by broth microdilution method; type: functional
Enterococcus faecalis [9] = assay: Antibacterial activity against vancomycin-sensitive Enterococcus faecalis APV 00404 after 16 to 24 hrs by broth microdilution method; type: functional
Enterococcus faecalis [10] = assay: Antibacterial activity against vancomycin and teicoplanin-resistant Enterococcus faecalis APV 00408 after 16 to 24 hrs by broth microdilution method; type: functional
Enterococcus faecium [11] = assay: Antibacterial activity against vancomycin and teicoplanin-resistant Enterococcus faecium APV 00424 after 16 to 24 hrs by broth microdilution method; type: functional
Enterococcus faecium [12] = assay: Antibacterial activity against Enterococcus faecium APV 00626 after 16 to 24 hrs by broth microdilution method; type: functional
Enterococcus faecium [13] = assay: Antibacterial activity against Enterococcus faecium APV 00627 after 16 to 24 hrs by broth microdilution method; type: functional
Haemophilus influenzae [14] = assay: Antibacterial activity against quinolone-sensitive Haemophilus influenzae H128 after 16 to 24 hrs by broth microdilution method; type: functional
Enterococcus faecium [15] = assay: Antibacterial activity against vancomycin resistant and teicoplanin sensitive Enterococcus faecium APV 00553 after 16 to 24 hrs by broth microdilution method; type: functional
Enterococcus faecium [16] = assay: Antibacterial activity against vancomycin resistant and teicoplanin sensitive Enterococcus faecium APV 00420 after 16 to 24 hrs by broth microdilution method; type: functional
Klebsiella pneumoniae = assay: Antibacterial activity against quinolone-sensitive Klebsiella pneumoniae ATCC 700603 after 16 to 24 hrs by broth microdilution method; type: functional
DNA gyrase [17] = biological target: DNA gyrase (Staphylococcus aureus, UniProt P0A0K8+P20831); assay: Inhibition of Staphylococcus aureus DNA gyrase; type: protein-complex assay
[18] = biological target: DNA topoisomerase 4 subunit A (Staphylococcus aureus, UniProt P0C1U9); assay: Inhibition of Staphylococcus aureus DNA topoisomerase 4 subunit ParC assessed as reduction in decatenation of kinetoplast DNA incubated for 60 mins by ethidium bromide staining based gel electrophoresis method
[19] = biological target: T1, DNA topoisomerase 4 subunit A (Escherichia coli K-12, UniProt P0AFI2); assay: Inhibition of Escherichia coli DNA topoisomerase 4 subunit ParC assessed as reduction in decatenation of kinetoplast DNA incubated for 60 mins by ethidium bromide staining based gel electrophoresis method
T1 sequence (P0AFI2 whole entry): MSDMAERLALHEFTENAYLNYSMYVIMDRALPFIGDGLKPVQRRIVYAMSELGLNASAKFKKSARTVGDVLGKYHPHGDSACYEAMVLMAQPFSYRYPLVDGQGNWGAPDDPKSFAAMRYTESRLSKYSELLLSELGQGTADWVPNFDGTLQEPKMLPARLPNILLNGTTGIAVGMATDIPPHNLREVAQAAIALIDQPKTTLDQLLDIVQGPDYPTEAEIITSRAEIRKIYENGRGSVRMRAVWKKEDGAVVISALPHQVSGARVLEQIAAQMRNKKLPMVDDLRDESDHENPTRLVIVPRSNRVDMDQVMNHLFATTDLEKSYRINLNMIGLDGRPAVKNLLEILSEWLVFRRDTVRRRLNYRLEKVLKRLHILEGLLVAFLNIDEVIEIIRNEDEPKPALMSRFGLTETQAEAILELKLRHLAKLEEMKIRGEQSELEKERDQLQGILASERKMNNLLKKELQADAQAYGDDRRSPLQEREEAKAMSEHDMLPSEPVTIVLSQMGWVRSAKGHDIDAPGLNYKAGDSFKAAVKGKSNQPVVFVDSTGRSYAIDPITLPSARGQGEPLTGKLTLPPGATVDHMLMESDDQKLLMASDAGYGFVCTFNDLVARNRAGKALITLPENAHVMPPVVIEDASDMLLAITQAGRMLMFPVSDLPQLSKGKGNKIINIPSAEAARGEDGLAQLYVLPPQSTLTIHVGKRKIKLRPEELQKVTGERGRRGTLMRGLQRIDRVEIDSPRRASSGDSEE

DNA gyrase subunit A [20] = biological target: DNA gyrase subunit A (Staphylococcus aureus, UniProt P20831); assay: Inhibition of Staphylococcus aureus DNA gyrase A assessed as reduction in enzyme-mediated supercoiling of relaxed pBR322 DNA measured after 60 mins by electrophoresis method
DNA gyrase subunit A [21] = biological target: DNA gyrase subunit A (Escherichia coli K-12, UniProt P0AES4); assay: Inhibition of Escherichia coli DNA gyrase A assessed as reduction in enzyme-mediated supercoiling of relaxed pBR322 DNA measured after 60 mins by electrophoresis method

Structure (SMILES): O=c1ccc2ncc(=O)n3c2n1C[C@H]3CN1CCC(NCc2cc3c(cn2)OCCC3)CC1 [GEPOTIDACIN]
MIC90 (Staphylococcus aureus): 0.5 µg/mL (≈ 1.11 µM) | MIC90 (Escherichia coli): 4 µg/mL (≈ 8.92 µM)

Structure (SMILES): CN[C@H](CC(C)C)C(=O)N[C@H]1C(=O)N[C@@H](CC(N)=O)C(=O)N[C@H]2C(=O)N[C@H]3C(=O)N[C@H](C(=O)N[C@H](C(=O)O)c4cc(O)cc(O)c4-c4cc3ccc4O)[C@H](O)c3ccc(c(Cl)c3)Oc3cc2cc(c3O[C@@H]2O[C@H](CO)[C@@H](O)[C@H](O)[C@H]2O[C@H]2C[C@](C)(N)[C@H](O)[C@H](C)O2)Oc2ccc(cc2Cl)[C@H]1O [VANCOMYCIN]
MIC (Enterococcus faecalis [3]): > 128 µg/mL | MIC (Enterococcus faecalis [4]): 4 µg/mL (≈ 2.76 µM) | MIC (Enterococcus faecalis [5]): 2 µg/mL (≈ 1.38 µM) | MIC (Haemophilus influenzae [6]): > 8 µg/mL | MIC (Enterococcus faecalis [7]): 1 µg/mL (≈ 0.69 µM) | MIC (Enterococcus faecium [8]): > 128 µg/mL | MIC (Enterococcus faecalis [9]): 2 µg/mL (≈ 1.38 µM) | MIC (Enterococcus faecalis [10]): > 128 µg/mL | MIC (Enterococcus faecium [11]): > 128 µg/mL | MIC (Enterococcus faecium [12]): > 128 µg/mL | MIC (Enterococcus faecium [13]): > 128 µg/mL | MIC (Haemophilus influenzae [14]): > 8 µg/mL | MIC (Enterococcus faecium [15]): > 128 µg/mL | MIC (Enterococcus faecium [16]): > 8 µg/mL | MIC (Klebsiella pneumoniae): > 8 µg/mL

Structure (SMILES): COc1ccc2ncc(C#N)c(CCN3CCC(NCc4cc5c(cn4)OCS5)CC3)c2c1
IC50 (DNA gyrase [2]): 100 nM | IC50 (DNA gyrase [17]): 14 nM | MIC (Escherichia coli): 0.06 µg/mL (≈ 0.13 µM)

Results, then the compound that gave them:

IC50 [1]: 140 nM | IC50 (DNA gyrase [2]): 1660 nM | MIC (Staphylococcus aureus): 0.12 µg/mL (≈ 0.238 µM) | MIC (Escherichia coli): 0.12 µg/mL (≈ 0.238 µM)
Structure (SMILES): COc1ccc2c3conc3c(=O)n(CCN3CCC(NCc4ccc5c(n4)NC(=O)CO5)CC3)c2c1

IC50 [18]: 18000 nM | IC50 [19]: 2200 nM | IC50 (DNA gyrase subunit A [20]): 1000 nM | IC50 (DNA gyrase subunit A [21]): 11000 nM
Structure (SMILES): COc1ccc2ncc(F)c([C@@H](O)CC[C@@H]3CCN(CCSc4cccs4)C[C@@H]3C(=O)O)c2c1
